This note sets out measurements from paper PMC12901071 (Scientific Reports, 2026).

Molecules are shown by their SMILES.

This test deals with T1, human membrane progestin receptor α (hmPRα) (Homo sapiens, UniProt Q86WK9).
T1 sequence (Q86WK9 1-346): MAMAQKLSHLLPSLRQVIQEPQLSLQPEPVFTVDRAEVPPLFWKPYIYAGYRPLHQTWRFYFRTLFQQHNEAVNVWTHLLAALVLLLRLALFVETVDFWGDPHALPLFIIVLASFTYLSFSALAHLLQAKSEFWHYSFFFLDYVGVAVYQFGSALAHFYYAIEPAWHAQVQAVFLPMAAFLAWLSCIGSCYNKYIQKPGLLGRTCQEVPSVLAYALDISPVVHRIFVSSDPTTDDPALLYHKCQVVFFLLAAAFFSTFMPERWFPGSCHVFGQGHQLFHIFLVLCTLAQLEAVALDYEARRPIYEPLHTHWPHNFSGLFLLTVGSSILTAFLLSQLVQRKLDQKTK
The test is described as follows: GQD-hmPRα fluorescence competition with P4-BSA-FITC. The test is classed as binding.

What is called IC50 is the concentration needed to halve the response being measured. A higher IC50 goes with weaker potency in that assay. The compound `CCCC(O)C(=O)OC(CCC)C(=O)O` (centres unmarked) [1-CB 2-HPNA, 1-carboxybutyl 2-hydroxypentanoate] came in with an IC50 of 1260 nM.

As to `CC(=O)[C@H]1CC[C@H]2[C@@H]3CCC4=CC(=O)CC[C@]4(C)[C@H]3CC[C@]12C` [progesterone], the half-maximal inhibitory concentration (IC50) came out at 1900 nM.
